Measurements published in ChEMBL document CHEMBL3045901, “Aryldiones incorporating a [1,4,5]oxadiazepane ring. Part 2: chemistry and biology of the cereal herbicide pinoxaden” (Pest Manag Sci, 2011).
Converted amounts (≈) assume the structure as drawn.

Tests used:
[1] = Solubility in water at 25 degC; assay type: physicochemical
[2] = Aqueous hydrolysis of the compound at pH 7 at 20 degC; assay type: physicochemical; conditions: aqueous solution, read-out: DT50 (converted)
Hordeum vulgare [3] = test: Drug level in winter Hordeum vulgare cv. Manitou (barley) at 0.1 g/l measured after 6 hr; assay type: ADME, organism-based; conditions: in vivo
Avena fatua [4] = test: Drug level in Avena fatua at 0.1 g/l measured after 6 hr in presence of safener cloquintocet-mexyl; assay type: ADME, organism-based; conditions: in vivo
Triticum aestivum [5] = test: Drug level in winter Triticum aestivum cv. Soisson (wheat) measured after 6 hr; assay type: ADME, organism-based; conditions: in vivo
[6] = Aqueous hydrolysis of the compound at pH 5 at 20 degC; assay type: physicochemical; conditions: aqueous solution, read-out: DT50 (converted)
Lolium perenne [7] = test: Drug level in Lolium perenne (perennial ryegrass) measured at 0.1 g/l after 6 hr; assay type: ADME, organism-based; conditions: in vivo
[8] = Aqueous hydrolysis of the compound at pH 4 at 20 degC; assay type: physicochemical; conditions: aqueous solution, read-out: DT50 (converted)
[9] = Lipophilicity, log P of the compound at 25 degC; assay type: physicochemical; conditions: octanol/water
Hordeum vulgare [10] = test: Drug metabolism in winter Hordeum vulgare cv. Manitou (barley) assessed as total inactive metabolites at 0.1 g/l measured after 16 hr; assay type: ADME, organism-based; conditions: in vivo
Lolium perenne [11] = test: Drug level in Lolium perenne (perennial ryegrass) measured at 0.1 g/l after 6 hr in presence of safener cloquintocet-mexyl; assay type: ADME, organism-based; conditions: in vivo
Avena fatua [12] = test: Drug level in Avena fatua at 0.1 g/l measured after 6 hr; assay type: ADME, organism-based; conditions: in vivo
Hordeum vulgare [13] = test: Drug level in winter Hordeum vulgare cv. Manitou (barley) at 0.1 g/l measured after 6 hr in presence of safener cloquintocet-mexyl; assay type: ADME, organism-based; conditions: in vivo
Triticum aestivum [14] = test: Drug level in winter Triticum aestivum cv. Soisson (wheat) measured after 6 hr in presence of safener cloquintocet-mexyl; assay type: ADME, organism-based; conditions: in vivo
[15] = Aqueous hydrolysis of the compound at pH 9 at 20 degC; assay type: physicochemical; conditions: aqueous solution, read-out: DT50 (converted)

## CCc1cc(C)cc(CC)c1-c1c(OC(=O)C(C)(C)C)n2n(c1=O)CCOCC2 [PINOXADEN]
[1]
  solubility: 200 µg/mL (≈ 499 µM)
[2]
  half-life: 14.9 days
Hordeum vulgare [3]
  Drug uptake: 2.1%
Avena fatua [4]
  Drug uptake: 0%
Triticum aestivum [5]
  Drug uptake: 0%
[6]
  half-life: 25.3 days
Lolium perenne [7]
  Drug uptake: 0%
[8]
  half-life: 24.1 days
[9]
  logP: 3.2
Hordeum vulgare [10]
  Drug metabolism: 49.6%
Lolium perenne [11]
  Drug uptake: 0%
Avena fatua [12]
  Drug uptake: 0%
Hordeum vulgare [13]
  Drug uptake: 1.5%
Triticum aestivum [14]
  Drug uptake: 0%
[15]
  half-life: 0.3 days
